This note sets out measurements from patent US10758534B2 (Vertex Pharmaceuticals Incorporated, priority 2014, dated 2020).

The target of the experiment is T1, F508del (Homo sapiens, UniProt P13569, DEL508-508).
T1 construct: expressed in transfected cells
T1 sequence (P13569 with tags, fused parts or gaps DEL508-508): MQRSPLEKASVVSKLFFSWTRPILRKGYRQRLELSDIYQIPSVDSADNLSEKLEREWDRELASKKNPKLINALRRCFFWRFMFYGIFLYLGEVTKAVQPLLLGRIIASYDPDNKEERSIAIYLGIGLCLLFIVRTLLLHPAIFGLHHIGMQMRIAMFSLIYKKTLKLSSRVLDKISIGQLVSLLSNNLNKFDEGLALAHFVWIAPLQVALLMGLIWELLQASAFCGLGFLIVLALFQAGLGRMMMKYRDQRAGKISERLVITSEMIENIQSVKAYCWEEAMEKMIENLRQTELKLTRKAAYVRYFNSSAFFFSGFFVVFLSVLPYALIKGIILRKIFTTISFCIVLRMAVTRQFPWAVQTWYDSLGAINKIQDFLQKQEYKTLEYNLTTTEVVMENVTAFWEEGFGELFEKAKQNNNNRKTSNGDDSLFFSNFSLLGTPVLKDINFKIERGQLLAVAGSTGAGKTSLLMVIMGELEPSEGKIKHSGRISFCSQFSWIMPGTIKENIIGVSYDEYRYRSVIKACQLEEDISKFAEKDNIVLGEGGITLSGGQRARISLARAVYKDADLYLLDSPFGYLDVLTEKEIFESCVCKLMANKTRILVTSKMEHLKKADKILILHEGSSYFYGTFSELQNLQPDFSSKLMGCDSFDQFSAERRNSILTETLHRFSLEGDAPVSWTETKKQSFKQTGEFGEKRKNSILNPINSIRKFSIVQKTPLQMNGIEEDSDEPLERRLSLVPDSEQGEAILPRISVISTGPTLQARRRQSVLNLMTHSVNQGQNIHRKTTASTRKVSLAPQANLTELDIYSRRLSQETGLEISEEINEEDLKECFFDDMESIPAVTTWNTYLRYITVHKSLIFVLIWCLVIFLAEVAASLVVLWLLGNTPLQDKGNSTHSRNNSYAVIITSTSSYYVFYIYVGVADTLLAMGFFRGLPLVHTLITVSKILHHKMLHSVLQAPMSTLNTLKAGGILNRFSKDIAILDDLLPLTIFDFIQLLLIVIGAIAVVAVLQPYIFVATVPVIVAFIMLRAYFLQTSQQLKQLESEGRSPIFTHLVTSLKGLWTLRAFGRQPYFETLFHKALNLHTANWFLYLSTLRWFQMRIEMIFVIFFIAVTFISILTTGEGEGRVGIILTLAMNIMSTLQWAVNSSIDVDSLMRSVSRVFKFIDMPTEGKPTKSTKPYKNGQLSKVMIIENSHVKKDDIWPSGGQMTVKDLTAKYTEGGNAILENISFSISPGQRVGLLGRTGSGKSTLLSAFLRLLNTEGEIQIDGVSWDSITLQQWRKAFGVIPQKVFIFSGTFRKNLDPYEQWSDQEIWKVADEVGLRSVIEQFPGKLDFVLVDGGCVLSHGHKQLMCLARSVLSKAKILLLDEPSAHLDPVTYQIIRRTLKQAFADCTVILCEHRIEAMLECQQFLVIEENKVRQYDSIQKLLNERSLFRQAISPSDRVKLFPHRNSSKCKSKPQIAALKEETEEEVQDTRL
Description: Protocol 1: membrane potential optical assay (FLIPR III, voltage sensing dye), identification of potentiator compounds. The experiment is classed as cell-based. As to conditions: Table 3, compounds of Table 1. The method in brief: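 Mouse NIH 3T3 fibroblasts stably expressing F508del, temperature-corrected at 27 °C for 24 h, pretreated with compound, then loaded with voltage-sensing redistribution dye. Forskolin was added in a single step with a chloride gradient (chloride-free gluconate bath; Bath Solution #1 HEPES pH 7.4). Membrane-potential fluorescence read on FLIPR III.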
Regarding `Cc1cc(C)c(Oc2nc(C(C)C(C)C)ccc2C(=O)NS(=O)(=O)c2cccc(N)n2)c(C)c1` (stereo not shown) [Compound 1486, N-[(6-amino-2-pyridyl)sulfonyl]-6-(1,2-dimethylpropyl)-2-(2,4,6-trimethylphenoxy)pyridine-3-carboxamide], the EC30 entry is recorded as “+++ (“+++” means <3 uM)”.
For the compound `CCOc1cccc2c1CN(Cc1c(C)cc(C)cc1C)C2(C)C(=O)NS(=O)(=O)c1cccc(F)c1` (stereo not shown) [Compound 1425, 4-ethoxy-N-(3-fluorophenyl)sulfonyl-1-methyl-2-[(2,4,6-trimethylphenyl)methyl]isoindoline-1-carboxamide], the EC30 entry is reported as “+++ (“+++” means <3 uM)”.
In the case of `C[C@@H]1CN(c2nc(C(C)(C)C)c(/C=C/C3CC3)cc2C(=O)NS(=O)(=O)c2cccc(N)n2)C(C)(C)C1` [Compound 1665, N-[(6-amino-2-pyridyl)sulfonyl]-6-tert-butyl-5-[(E)-2-cyclopropylvinyl]-2-[(4S)-2,2,4-trimethylpyrrolidin-1-yl]pyridine-3-carboxamide], the EC30 result is on record as “+++ (“+++” means <3 uM)”.
The result for `COc1ccc(-c2ccc(C(=O)NS(=O)(=O)c3cc[nH]n3)c(Oc3c(C)cc(C)cc3C)n2)cc1` [Compound 1033, 6-(4-methoxyphenyl)-N-(1H-pyrazol-3-ylsulfonyl)-2-(2,4,6-trimethylphenoxy)pyridine-3-carboxamide] reads “+++ (“+++” means <3 uM)”; that for `CC1CN(c2ncccc2C(=O)NS(=O)(=O)c2cccc(Oc3ccccc3C#N)n2)C(C)(C)C1` (stereo not shown) [Compound 1720, N—[[6-(2-cyanophenoxy)-2-pyridyl]sulfonyl]-2-(2,2,4-trimethylpyrrolidin-1-yl)pyridine-3-carboxamide], “+++ (“+++” means <3 uM)”.
As for `CC1CCN(c2nc(C(C)(C)C)ccc2C(=O)NS(=O)(=O)c2ccc(N)cc2)CC1` [Compound 1037, N-(4-aminophenyl)sulfonyl-6-tert-butyl-2-(4-methyl-1-piperidyl)pyridine-3-carboxamide], the entry is “++ (“++” means between 3 uM and 10 uM)”.
Regarding `Cc1ccc(F)c(-c2nc(C(C)(C)C)ccc2C(=O)NS(=O)(=O)c2cccc(N)c2)c1` [Compound 1350, N-(3-aminophenyl)sulfonyl-6-tert-butyl-2-(2-fluoro-5-methyl-phenyl)pyridine-3-carboxamide], the EC30 entry is reported as “+ (“+” means greater than 10 uM)”.
On to `Cc1cc(C)c(Oc2nc(C3=CCN(C(=O)C(C)C)CC3)ccc2C(=O)NS(=O)(=O)c2cccc(N)n2)c(C)c1` [Compound 1540, N-[(6-amino-2-pyridyl)sulfonyl]-6-[1-(2-methylpropanoyl)-3,6-dihydro-2H-pyridin-4-yl]-2-(2,4,6-trimethylphenoxy)pyridine-3-carboxamide], for which the EC30 entry is “+ (“+” means greater than 10 uM)”.
For `CC(C)COc1cc(F)cc(-c2ccc(C(=O)NS(=O)(=O)c3cccc(N)n3)c(OCCC3CCCCC3)n2)c1` [Compound 1465, N-[(6-amino-2-pyridyl)sulfonyl]-2-(2-cyclohexylethoxy)-6-(3-fluoro-5-isobutoxy-phenyl)pyridine-3-carboxamide], the EC30 entry is “+++ (“+++” means <3 uM)”.
For `CC(C)COc1cc(F)cc(-c2ccc(C(=O)NS(=O)(=O)c3cccc(N)n3)c(OC3COC3)n2)c1` [Compound 872, N-[(6-amino-2-pyridyl)sulfonyl]-6-(3-fluoro-5-isobutoxy-phenyl)-2-(oxetan-3-yloxy)pyridine-3-carboxamide], the EC30 result is “++ (“++” means between 3 uM and 10 uM)”.
The result for `CC1CN(c2ncccc2C(=O)NS(=O)(=O)c2cccc(N3CCCC(c4ccccc4)C3)n2)C(C)(C)C1` (stereo not shown) [Compound 1755, N—[[6-(3-phenyl-1-piperidyl)-2-pyridyl]sulfonyl]-2-(2,2,4-trimethylpyrrolidin-1-yl)pyridine-3-carboxamide] reads “++ (“++” means between 3 uM and 10 uM)”; that for `Cc1cc(C)c(CN2C(C(=O)NS(=O)(=O)c3cc(N)ccc3C)c3ccccc3C2(C)C)c(C)c1` (stereo not shown) [Compound 840, N-(5-amino-2-methyl-phenyl)sulfonyl-3,3-dimethyl-2-[(2,4,6-trimethylphenyl)methyl]isoindoline-1-carboxamide], “+++ (“+++” means <3 uM)”.
In the case of `CCC1CCC(C)N1c1nc(-c2cc(F)cc(OCC(C)C)c2)ccc1C(=O)NS(=O)(=O)c1cccc(N)n1` (stereo not shown) [Compound 1222, N-[(6-amino-2-pyridyl)sulfonyl]-2-(2-ethyl-5-methyl-pyrrolidin-1-yl)-6-(3-fluoro-5-isobutoxy-phenyl)pyridine-3-carboxamide], the EC30 entry is “+++ (“+++” means <3 uM)”.
On to `Cc1cc(C)c(Oc2nc(-c3ccc(C)cc3F)ccc2C(=O)NS(=O)(=O)c2cccc(N)n2)c(C)c1` [Compound 875, N-[(6-amino-2-pyridyl)sulfonyl]-6-(2-fluoro-4-methyl-phenyl)-2-(2,4,6-trimethylphenoxy)pyridine-3-carboxamide], for which the EC30 entry is “+++ (“+++” means <3 uM)”.
`Cc1cc(C)c(Oc2nc(C3=CCN(Cc4ccccc4)CC3)ccc2C(=O)NS(=O)(=O)c2cccc(N)n2)c(C)c1` [Compound 1389, N-[(6-amino-2-pyridyl)sulfonyl]-6-(1-benzyl-3,6-dihydro-2H-pyridin-4-yl)-2-(2,4,6-trimethylphenoxy)pyridine-3-carboxamide]: the EC30 result was “+++ (“+++” means <3 uM)”.
Regarding `COc1ncc(-c2ccc(C(=O)NS(=O)(=O)c3ccc[nH]c3=O)c(Oc3c(C)cc(C)cc3C)n2)cc1C` [Compound 930, 6-(6-methoxy-5-methyl-3-pyridyl)-N-[(2-oxo-1H-pyridin-3-yl)sulfonyl]-2-(2,4,6-trimethylphenoxy)pyridine-3-carboxamide], the EC30 result was “++ (“++” means between 3 uM and 10 uM)”.
The result for `CC(C)COc1cc(F)cc(-c2ccc(C(=O)NS(=O)(=O)c3ccn[nH]3)c(N3CCCC3(C)C)n2)c1` [Compound 1302, 2-(2,2-dimethylpyrrolidin-1-yl)-6-(3-fluoro-5-isobutoxy-phenyl)-N-(1H-pyrazol-5-ylsulfonyl)pyridine-3-carboxamide] reads “++ (“++” means between 3 uM and 10 uM)”.
The result for `CC(C)c1ccc(-c2ccc(C(=O)NS(=O)(=O)c3cccc(N)n3)c(N3[C@H](C)CC[C@@H]3C)n2)cc1` [Compound 1343, N-[(6-amino-2-pyridyl)sulfonyl]-2-[(2S,5R)-2,5-dimethylpyrrolidin-1-yl]-6-(4-isopropylphenyl)pyridine-3-carboxamide] reads “+++ (“+++” means <3 uM)”.
Turning to `CCOc1cccc2c1CN(Cc1c(C)cc(C)cc1C)C2(C)C(=O)NS(=O)(=O)c1ccc(Cl)c(N)n1` (stereo not shown) [Compound 1596, N-[(6-amino-5-chloro-2-pyridyl)sulfonyl]-4-ethoxy-1-methyl-2-[(2,4,6-trimethylphenyl)methyl]isoindoline-1-carboxamide], the EC30 result is “+++ (“+++” means <3 uM)”.
On to `CC(C)COc1cc(F)cc(-c2ccc(C(=O)NS(=O)(=O)c3cccc(N)n3)c(N3CCC(C)C3(C)C)n2)c1` (stereo not shown) [Compound 1121, N-[(6-amino-2-pyridyl)sulfonyl]-6-(3-fluoro-5-isobutoxy-phenyl)-2-(2,2,3-trimethylpyrrolidin-1-yl)pyridine-3-carboxamide], for which the EC30 result is listed as “+++ (“+++” means <3 uM)”.
On to `CC(C)Oc1ccn(-c2ccc(C(=O)NS(=O)(=O)c3cccnc3N)c(N3C[C@@H](C)CC3(C)C)n2)n1` [Compound 1844, N-[(2-amino-3-pyridyl)sulfonyl]-6-(3-isopropoxypyrazol-1-yl)-2-[(4S)-2,2,4-trimethylpyrrolidin-1-yl]pyridine-3-carboxamide], for which the EC30 result is on record as “+++ (“+++” means <3 uM)”.
The result for `Cc1cc(C)c(CN2CCc3ccccc3CC2C(=O)NS(=O)(=O)c2ccccc2)c(C)c1` (stereo not shown) [Compound 1039, N-(benzenesulfonyl)-3-[(2,4,6-trimethylphenyl)methyl]-1,2,4,5-tetrahydro-3-benzazepine-4-carboxamide] reads “+++ (“+++” means <3 uM)”; that for `Cc1cc(F)ccc1Oc1nc(C(C)(C)C)ccc1C(=O)NS(=O)(=O)c1cccc(N)n1` [Compound 1104, N-[(6-amino-2-pyridyl)sulfonyl]-6-tert-butyl-2-(4-fluoro-2-methyl-phenoxy)pyridine-3-carboxamide], “+++ (“+++” means <3 uM)”.
On to `CCOc1ccc(-c2ccc(C(=O)NS(=O)(=O)c3cc[nH]n3)c(Oc3ccc(C)cc3C)n2)cc1` [Compound 813, 2-(2,4-dimethylphenoxy)-6-(4-ethoxyphenyl)-N-(1H-pyrazol-3-ylsulfonyl)pyridine-3-carboxamide], for which the EC30 result is reported as “+++ (“+++” means <3 uM)”.
Consider `CC1CN(c2ncccc2C(=O)NS(=O)(=O)c2cccc(N3Cc4ccccc4C3)n2)C(C)(C)C1` (stereo not shown) [Compound 1838, N-[(6-isoindolin-2-yl-2-pyridyl)sulfonyl]-2-(2,2,4-trimethylpyrrolidin-1-yl)pyridine-3-carboxamide], for which the EC30 entry was “+++ (“+++” means <3 uM)”.
Take `CC1CN(c2ncccc2C(=O)NS(=O)(=O)c2cccc(Oc3ccc4cccnc4c3)n2)C(C)(C)C1` (stereo not shown) [Compound 1875, N—[[6-(7-quinolyloxy)-2-pyridyl]sulfonyl]-2-(2,2,4-trimethylpyrrolidin-1-yl)pyridine-3-carboxamide]: the EC30 entry is “++ (“++” means between 3 uM and 10 uM)”.
As for `COc1ccc(S(=O)(=O)NC(=O)c2ccc(-c3cc(F)cc(OCC(C)C)c3)nc2N2C[C@@H](C)CC2(C)C)cc1` [Compound 1876, 6-(3-fluoro-5-isobutoxy-phenyl)-N-(4-methoxyphenyl)sulfonyl-2-[(4S)-2,2,4-trimethylpyrrolidin-1-yl]pyridine-3-carboxamide], the entry is “+++ (“+++” means <3 uM)”; as for `CC(C)Oc1ccc(-c2ccc(C(=O)NS(=O)(=O)c3cccc(N)n3)c(N3Cc4ccccc4C3)n2)cn1` [Compound 1072, N-[(6-amino-2-pyridyl)sulfonyl]-2-isoindolin-2-yl-6-(6-isopropoxy-3-pyridyl)pyridine-3-carboxamide], “++ (“++” means between 3 uM and 10 uM)”.
